One assay relates to Zymoseptoria tritici. Description: Fungicidal activity: leaf blotch of wheat (SEPTTR), wheat seedlings, booth sprayer to run-off or track spray. In kind it is in vivo. To be noted: High-Volume Cereal Activity at 100 ppm. The procedure: All fungicides were evaluated using the aforementioned method for their activity vs. all target diseases. Wheat leaf blotch and brown rust activity were also evaluated using track spray applications, in which case the fungicides were formulated as EC formulations, containing 0.1% Trycol 5941 in the spray solutions. Wheat plants (variety Yuma) were grown from seed in a greenhouse in 50% mineral soil/50% soil-less Metro mix until the first leaf was fully emerged, with 7-10 seedlings per pot. These plants were inoculated with an aqueous spore suspension of Zymoseptoria tritici either prior to or after fungicide treatments. After inoculation the plants were kept in 100% relative humidity (one day in a dark dew chamber followed by two to three days in a lighted dew chamber at 20° C.) to permit spores to germinate and infect the leaf. The plants were then transferred to a greenhouse set at 20° C. for disease to develop. When disease symptoms were fully expressed on the 1st leaves of untreated plants, infection levels were assessed on a scale of 0 to 100 percent disease severity. Percent disease control was calculated using the ratio of disease severity on treated plants relative to untreated plants.

The subject of another assay is Puccinia triticina. Description: Fungicidal activity: wheat brown rust (PUCCRT), wheat seedlings, booth sprayer to run-off or track spray. To be noted: High-Volume Cereal Activity at 100 ppm. In kind it is in vivo. On the procedure:
All fungicides were evaluated using the aforementioned method for their activity vs. all target diseases. Wheat leaf blotch and brown rust activity were also evaluated using track spray applications, in which case the fungicides were formulated as EC formulations, containing 0.1% Trycol 5941 in the spray solutions. Wheat plants (variety Yuma) were grown from seed in a greenhouse in 50% mineral soil/50% soil-less Metro mix until the first leaf was fully emerged, with 7-10 seedlings per pot. These plants were inoculated with an aqueous spore suspension of Puccinia triticina either prior to or after fungicide treatments. […] The plants were then transferred to a greenhouse set at 24° C. for disease to develop. Fungicide formulation, application and disease assessment followed the procedures as described in the Example A.

The mark [1] stands for this setting: 3DC (Day Curative), read-out: SEPTTR 3DC.
Setting [2] is: 24 h, 1 Day Protectant, read-out: PUCCRT 1DP.
Setting [3] is: 3DC (Day Curative), read-out: PUCCRT 3DC.
[4] abbreviates: 24 h, 1 Day Protectant, read-out: SEPTTR 1DP.

Where two headings read alike, the source gives them in different places.

On to `CCCC[C@@H]([C@H](C)OC(=O)[C@H](C)NC(=O)c1nccc(OC)c1O)[C@H](CC)Oc1ccccc1` [compound 115], for which the pest or weed control at 100 ppm in the assay on Zymoseptoria tritici (setting [1]), in the assay with Puccinia triticina (setting [2]) and in the assay with Puccinia triticina (setting [3]) was 80 to 100% each time.

Turning to `CCCC[C@@H]([C@H](C)OC(=O)[C@H](C)NC(=O)c1nccc(OC)c1O)[C@@H](CC)Oc1ccccc1` [compound 116], the pest or weed control at 100 ppm was in the range of 0 to 80% with Zymoseptoria tritici (setting [4]), 0 to 80% in the assay with Zymoseptoria tritici (setting [1]), 0 to 80% in the assay with Puccinia triticina (setting [2]) and 80 to 100% in the assay with Puccinia triticina (setting [3]).

Regarding `CC[C@H](Oc1ccccc1)[C@@H](Cc1ccccc1)[C@H](C)OC(=O)[C@H](C)NC(=O)c1nccc(OC)c1O` [compound 117], the pest or weed control at 100 ppm with Zymoseptoria tritici (setting [4]) fell in the range of 80 to 100%; with Zymoseptoria tritici (setting [1]), 0 to 80%; in the assay on Puccinia triticina (setting [2]) it was 80 to 100%; with Puccinia triticina (setting [3]) it was 80 to 100%.

Regarding `CC[C@@H](Oc1ccccc1)[C@@H](Cc1ccccc1)[C@H](C)OC(=O)[C@H](C)NC(=O)c1nccc(OC)c1O` [compound 118], the pest or weed control at 100 ppm in the assay with Zymoseptoria tritici (setting [4]) is 80 to 100%; in the assay on Zymoseptoria tritici (setting [1]), 0 to 80%; in the assay with Puccinia triticina (setting [2]), 0 to 80%; in the assay with Puccinia triticina (setting [3]), 80 to 100%.

As to `CCCC[C@H](c1ccccc1)[C@H](C)OC(=O)[C@H](C)NC(=O)c1nccc(OC)c1O` [compound 120], the pest or weed control at 100 ppm in the assay with Zymoseptoria tritici (setting [1]) and with Puccinia triticina (setting [3]) was 0 to 80% each time.

In the case of `COc1ccnc(C(=O)N[C@@H](C)C(=O)O[C@@H](C)[C@H](Cc2ccc(Cl)cc2)c2ccccc2)c1O` [compound 121], the pest or weed control at 100 ppm is 80 to 100% in the assay with Zymoseptoria tritici (setting [4]), 0 to 80% with Zymoseptoria tritici (setting [1]), 80 to 100% in the assay on Puccinia triticina (setting [2]) and 0 to 80% with Puccinia triticina (setting [3]).

As for `COc1ccnc(C(=O)N[C@@H](C)C(=O)O[C@@H](C)[C@H](CCC(C)C)c2ccccc2)c1O` [compound 123], the results for the pest or weed control at 100 ppm with Zymoseptoria tritici (setting [1]) and with Puccinia triticina (setting [3]) were 80 to 100% and 0 to 80%, respectively.

For the compound `COc1ccnc(C(=O)N[C@@H](C)C(=O)O[C@@H](C)[C@@H](COc2ccccc2)Cc2ccccc2)c1O` [compound 125], the pest or weed control at 100 ppm in the assay with Zymoseptoria tritici (setting [4]), in the assay with Zymoseptoria tritici (setting [1]), with Puccinia triticina (setting [2]) and in the assay with Puccinia triticina (setting [3]) was 0 to 80% throughout.

Regarding `COc1ccnc(C(=O)N[C@@H](C)C(=O)O[C@@H](C)[C@@H](COc2ccc(Cl)cc2Cl)Cc2ccccc2)c1O` [compound 126], the pest or weed control at 100 ppm in the assay with Zymoseptoria tritici (setting [4]) and in the assay with Puccinia triticina (setting [2]) was 0 to 80% each time.

With `COc1ccnc(C(=O)N[C@@H](C)C(=O)O[C@@H](C)[C@H](Cc2ccc(Cl)c(Cl)c2)c2ccccc2)c1O` [compound 127], the pest or weed control at 100 ppm with Zymoseptoria tritici (setting [4]), in the assay on Zymoseptoria tritici (setting [1]) and in the assay on Puccinia triticina (setting [2]) was 0 to 80% throughout.

Consider `COc1ccnc(C(=O)N[C@@H](C)C(=O)O[C@@H](C)[C@H](Cc2ccc(C)cc2)c2ccccc2)c1O` [compound 128], for which the pest or weed control at 100 ppm is 80 to 100% in the assay with Zymoseptoria tritici (setting [4]), 0 to 80% in the assay on Zymoseptoria tritici (setting [1]) and 80 to 100% in the assay on Puccinia triticina (setting [2]).

Take `COc1ccnc(C(=O)N[C@@H](C)C(=O)O[C@@H](C)[C@H](Cc2ccc(F)cc2)c2ccccc2)c1O` [compound 129]: the pest or weed control at 100 ppm was 80 to 100% in the assay on Zymoseptoria tritici (setting [4]), 0 to 80% with Zymoseptoria tritici (setting [1]), 80 to 100% in the assay with Puccinia triticina (setting [2]) and 0 to 80% in the assay with Puccinia triticina (setting [3]).

`COc1ccnc(C(=O)N[C@@H](C)C(=O)O[C@@H](C)[C@H](Cc2ccc3ccccc3c2)c2ccccc2)c1O` [compound 130]: the figures for the pest or weed control at 100 ppm with Zymoseptoria tritici (setting [4]), in the assay on Zymoseptoria tritici (setting [1]) and with Puccinia triticina (setting [2]) were 80 to 100%, 0 to 80% and 80 to 100%, respectively.

Turning to `COc1ccnc(C(=O)N[C@@H](C)C(=O)O[C@@H](C)[C@@H](COCc2ccccc2)Cc2ccc(F)cc2)c1O` [compound 131], the pest or weed control at 100 ppm in the assay with Zymoseptoria tritici (setting [4]) was in the range of 80 to 100%; in the assay on Zymoseptoria tritici (setting [1]) it was 0 to 80%; with Puccinia triticina (setting [2]) it was 80 to 100%; in the assay with Puccinia triticina (setting [3]) it was 0 to 80%.

Turning to `COc1ccnc(C(=O)N[C@@H](C)C(=O)O[C@@H](C)[C@@H](COCc2ccccc2)Cc2ccccc2)c1O` [compound 132], the pest or weed control at 100 ppm in the assay with Zymoseptoria tritici (setting [4]) was 0 to 80%; with Zymoseptoria tritici (setting [1]), 80 to 100%; with Puccinia triticina (setting [2]) it was 80 to 100%; in the assay on Puccinia triticina (setting [3]), 80 to 100%.

Consider `COc1ccnc(C(=O)N[C@@H](C)C(=O)O[C@@H](C)[C@H](Cc2ccc(F)cc2)C(C)(C)OCc2ccccc2)c1O` [compound 133], for which the pest or weed control at 100 ppm fell in the range of 0 to 80% with Zymoseptoria tritici (setting [4]), 0 to 80% in the assay on Zymoseptoria tritici (setting [1]) and 80 to 100% with Puccinia triticina (setting [2]).

Turning to `COc1ccnc(C(=O)N[C@@H](C)C(=O)O[C@@H](C)[C@H](Cc2ccccc2)C(C)(C)OCc2ccccc2)c1O` [compound 134], the pest or weed control at 100 ppm in the assay on Zymoseptoria tritici (setting [4]) lay in the range of 80 to 100%; in the assay on Zymoseptoria tritici (setting [1]), 0 to 80%; with Puccinia triticina (setting [2]), 80 to 100%; in the assay on Puccinia triticina (setting [3]) it was 0 to 80%.

Regarding `COC[C@@H](Cc1ccc(F)cc1)[C@H](C)OC(=O)[C@H](C)NC(=O)c1nccc(OC)c1O` [compound 135], the pest or weed control at 100 ppm was 0 to 80% in the assay on Zymoseptoria tritici (setting [4]), 0 to 80% with Zymoseptoria tritici (setting [1]), 80 to 100% with Puccinia triticina (setting [2]) and 0 to 80% in the assay on Puccinia triticina (setting [3]).

Turning to `COc1ccnc(C(=O)N[C@@H](C)C(=O)O[C@@H](C)[C@H](Cc2ccc(F)cc2)C(C)(C)OC)c1O` [compound 136], the pest or weed control at 100 ppm in the assay with Zymoseptoria tritici (setting [1]) is 80 to 100%; in the assay on Puccinia triticina (setting [2]), 0 to 80%; in the assay on Puccinia triticina (setting [3]), 0 to 80%.

Take `COc1ccnc(C(=O)N[C@@H](C)C(=O)O[C@@H](C)[C@H](Cc2ccccc2)C(C)(C)OC)c1O` [compound 137]: the pest or weed control at 100 ppm in the assay on Zymoseptoria tritici (setting [1]) and in the assay on Puccinia triticina (setting [3]) was 0 to 80% in each case.

Take `COc1ccnc(C(=O)N[C@@H](C)C(=O)O[C@@H](C)[C@H](Cc2ccc(F)cc2)C(C)(C)OCc2ccc(F)cc2)c1O` [compound 139]: the pest or weed control at 100 ppm in the assay with Zymoseptoria tritici (setting [4]), with Zymoseptoria tritici (setting [1]) and with Puccinia triticina (setting [2]) was 0 to 80% each time.

Take `COc1ccnc(C(=O)N[C@@H](C)C(=O)O[C@@H](C)[C@@H](COCCC(C)C)Cc2ccc(F)cc2)c1O` [compound 140]: the pest or weed control at 100 ppm with Zymoseptoria tritici (setting [4]), in the assay with Zymoseptoria tritici (setting [1]) and with Puccinia triticina (setting [3]) was 0 to 80% throughout.

For `COc1ccnc(C(=O)N[C@@H](C)C(=O)O[C@@H](C)[C@@H](COCCC(C)C)Cc2ccccc2)c1O` [compound 141], the pest or weed control at 100 ppm lay within 80 to 100% in the assay with Zymoseptoria tritici (setting [4]), 0 to 80% in the assay with Zymoseptoria tritici (setting [1]), 0 to 80% with Puccinia triticina (setting [2]) and 0 to 80% in the assay on Puccinia triticina (setting [3]).

As to `CCCOC[C@@H](Cc1ccc(OC)cc1)[C@H](C)OC(=O)[C@H](C)NC(=O)c1nccc(OC)c1O` [compound 143], the pest or weed control at 100 ppm in the assay with Zymoseptoria tritici (setting [4]) lay in the range of 80 to 100%; in the assay on Zymoseptoria tritici (setting [1]), 0 to 80%; with Puccinia triticina (setting [2]), 80 to 100%; with Puccinia triticina (setting [3]), 0 to 80%.

In the case of `CCCOC[C@@H](Cc1ccc(OC)c(Cc2ccccc2)c1)[C@H](C)OC(=O)[C@H](C)NC(=O)c1nccc(OC)c1O` [compound 145], the pest or weed control at 100 ppm in the assay with Zymoseptoria tritici (setting [4]) is 80 to 100%; in the assay on Zymoseptoria tritici (setting [1]), 0 to 80%; in the assay with Puccinia triticina (setting [2]), 0 to 80%.

On to `CCCOC(C)(C)[C@@H](Cc1ccc(OC)c(Cc2ccccc2)c1)[C@H](C)OC(=O)[C@H](C)NC(=O)c1nccc(OC)c1O` [compound 146], for which the pest or weed control at 100 ppm with Zymoseptoria tritici (setting [4]), with Zymoseptoria tritici (setting [1]) and with Puccinia triticina (setting [2]) was 0 to 80% throughout.

For the compound `COc1ccnc(C(=O)N[C@@H](C)C(=O)OC(C)C(Cc2ccccc2)Cc2ccccc2)c1O` (stereo partly drawn) [compound 147], the pest or weed control at 100 ppm with Zymoseptoria tritici (setting [4]) and in the assay with Puccinia triticina (setting [2]) was 80 to 100% in each case.

Regarding `COc1ccnc(C(=O)N[C@H](C(=O)OC(C)C(Cc2ccccc2)Cc2ccccc2)C(C)C)c1O` (stereo partly drawn) [compound 148], the pest or weed control at 100 ppm with Zymoseptoria tritici (setting [4]) and in the assay with Puccinia triticina (setting [2]) was 0 to 80% throughout.

Turning to `CC[C@H](NC(=O)c1nccc(OC)c1O)C(=O)OC(C)C(Cc1ccccc1)Cc1ccccc1` (stereo partly drawn) [compound 149], the pest or weed control at 100 ppm in the assay on Zymoseptoria tritici (setting [4]) and in the assay on Puccinia triticina (setting [2]) was 80 to 100% in each case.

On to `COc1ccnc(C(=O)N[C@@H](C)C(=O)OC(C)C(Cc2cccc(F)c2)Cc2cccc(F)c2)c1O` (stereo partly drawn) [compound 150], for which the pest or weed control at 100 ppm with Zymoseptoria tritici (setting [4]) and with Puccinia triticina (setting [2]) was 80 to 100% in each case.

As to `COc1ccnc(C(=O)N[C@@H](C)C(=O)OC(C)C(Cc2ccc(F)cc2)Cc2ccc(F)cc2)c1O` (stereo partly drawn) [compound 151], the pest or weed control at 100 ppm with Zymoseptoria tritici (setting [4]) and in the assay on Puccinia triticina (setting [2]) was 80 to 100% throughout.
